# From article PMC11262537, “Cell-Penetrating Chaperone Nuc1 for Small- and Large-Molecule Delivery Into Retinal Cells and Tissues” (Investigative Ophthalmology & Visual Science, 2024)
# “Also recorded” adds a separate entry of the source. Residues, ends and D or L forms follow the SMILES beside them. No end group written: not given here. *: point of attachment. 6FAM = O=C1OC2(c3ccc(O)cc3Oc3cc(O)ccc32)c2cc(C(=O)*)ccc21
# Columns and labels:
# [1] = system: retinal tissues and cells; test: Retinal penetration of FAM-labeled peptide after intravitreal injection, fluorescence microscopy of cryosections; assay type: in vivo, C57BL/6J mice; settings: for localization in retinal layers: 1 µg in 1 µL H2O intravitreal, 4 hours postinjection, fluorescence microscopy of cryosections, n = 4 to 5 animals per group
# Protocol: Retinal cryosections (14 µm) were rehydrated in phosphate-buffered saline (PBS) for 15 minutes, permeabilized, and blocked with 6% normal goat serum in PBS containing 0.1% Triton-X-100 (or using mouse-on-mouse kit as appropriate) for 45 minutes and incubated overnight in a saturated chamber with the primary antibodies against anti-glutamine synthetase (Müller cells), anti–β-III-tubulin (ganglion cells), anti-rhodopsin (rod cells), anti–S-opsin (cone cells), and anti-PKCα (bipolar cells). Subsequently, sections were washed and incubated with respective secondary antibodies labeled with Alexa Fluor 594 or 488 (Molecular Probes, Eugene, OR, USA) or Cy3 (Jackson Immunoresearch, Westgrove, PA, USA). Slides were mounted in antifade medium containing DAPI (Vectashield-DAPI; Vector Laboratories, Burlingame, CA, USA) to counterstain nuclei, and images were captured with a Leica TCS SPE microscope (Leica Microsystems, Wetzlar, Germany).
# (§1) In order to determine whether Nuc1 peptide was toxic to the murine retina, we injected various amounts (0.5–4.0 µg) 5′ 6-FAM–labeled Nuc1 into the vitreous of 6-week-old C57BL/6J mice and processed the retinas as described below. We determined that 1 µg Nuc1 was not toxic to the retina, whereas 4.0 µg Nuc1 generated some toxicity (data not shown). Based on these observations, we selected 1 µg as an optimal working dose. We then injected 1 µg 5′ 6-FAM–labeled Nuc1 suspended in 1 µL H2O or 1 µg 5′ 6-FAM-SC (a scrambled peptide) into the vitreous of 6-week-old C57BL/6J mice. Four hours postinjection, eyes were enucleated, fixed, and cryosectioned and the retina was imaged by fluorescence microscopy. […] We conclude that Nuc1 peptide penetrates the retina and labels a variety of retinal cells following intravitreal injection.
# [2] = system: murine retinal tissue explants; test: Retinal explant culture uptake with or without imipramine (macropinocytosis); assay type: cell-based, C57BL6/J mice; settings: 37°C, confocal imaging, n = 3–4 explants per group; for uptake into retinal explants in presence of imipramine: 1 µg/mL in DMEM/F12 + 5 µM imipramine, 4 hours; for uptake into retinal explants: 1 µg/mL in DMEM/F12, 4 hours, 5% CO2, absence of imipramine
# Protocol: After careful removal, the eyeballs from C57BL6/J mice were transferred to a Petri dish containing fresh cold Dulbecco's modified Eagle's medium (DMEM). Under a dissecting microscope, the cornea, ocular muscles, and lens were removed and flat mounts prepared via making four incisions from the margin of the eye cup toward the optic nerve. Flat mounts were transferred into six-well plates containing fresh DMEM/F12 mixed with 5′ 6-FAM-Nuc1 or 5′ 6-FAM-SC (1 µg/mL) in presence or absence of 5 µM imipramine (Sigma). After 4 hours of culturing in a cell culture incubator (37°C, 5% CO2), retinas were washed twice with PBS and fixed with 4% PFA for 15 minutes. Thereafter, the tissue sections were soaked in 15% to 30% sucrose at 4°C overnight. Retinal explants were frozen into Tissue-Tek cryomolds (Torrence, CA, USA) and the 14-µm sections were imaged under a Leica (Teaneck, NJ, USA) TCS-SPE confocal microscope.
# Macropinocytosis is a specialized pathway of endocytosis characterized by the nonspecific internalization of extracellular fluids, solutes, and membrane in large endocytic vesicles known as macropinosomes. Macropinocytosis plays a role in a variety of physiological processes, including nutrient sensing, recycling of plasma proteins, and signaling.[42]^,[43] Molecules that bind HSPGs can stimulate bulk cellular uptake via macropinocytosis.[19] […] In order to test the hypothesis that Nuc1 can be taken up by cells via macropinocytosis, murine retinal tissue explants were incubated in 5′ 6-FAM-Nuc1 (1 µg/mL) in the presence or absence of 5 µM imipramine. After 4 hours, explants were processed for cryosectioning as above. We found robust uptake of 5′ 6-FAM-Nuc1 within 4 hours of incubation (Fig. 7). […] We conclude that Nuc1 peptide penetrates retinal cells in part by the process of macropinocytosis.
# murine retina = test: Retinal toxicity of Nuc1 after intravitreal injection; assay type: in vivo, C57BL/6J mice; settings: for toxicity to the retina: 6-week-old C57BL/6J mice, data not shown
# Protocol: as §1
# Furthermore, while sequences used in the design of Nuc1 were selected based on prior studies of nucleolin and heparan-sulfate proteoglycan-binding sequences, detailed analysis of mechanism(s) of uptake is ongoing in our laboratory. Such studies face the challenge of limitations associated with retinal cell culture with a bona fide extracellular matrix.
Molecule,localization in retinal layers [1],"retinal cell types targeted ([1]; 1 µg intravitreal, 4 hours, costaining for tubulin, PKC, rod opsin, glutamine synthase)",uptake into retinal explants in presence of imipramine [2],uptake into retinal explants [2],toxicity to the retina (murine retina; 1 µg 5′ 6-FAM-labeled Nuc1 intravitreal),toxicity to the retina (murine retina; 4.0 µg 5′ 6-FAM-labeled Nuc1 intravitreal),obvious toxicity associated with Nuc1 (murine retina; short-term (4 hours) or longer-term (2 weeks) proof-of-concept studies)
CC[C@H](C)[C@H](NC(=O)[C@H](CO)NC(=O)[C@H](C)NC(=O)c1ccc2c(c1)C1(OC2=O)c2ccc(O)cc2Oc2cc(O)ccc21)C(=O)N[C@@H](CCCCN)C(=O)N[C@H](C(=O)N[C@@H](C)C(=O)N[C@H](C(=O)N[C@@H](CO)C(=O)N[C@@H](C)C(=O)NCC(=O)NCC(=O)N[C@@H](CC(=O)O)C(=O)N[C@@H](CCCCN)C(=O)N1CCC[C@H]1C(=O)N[C@@H](CCCNC(=N)N)C(=O)N[C@@H](CCCNC(=N)N)C(=O)O)C(C)C)C(C)C [5′ 6-FAM-Nuc1] (6FAM-ASIKVAVSAGGDKPRR-OH),abundantly localized to all layers of the retina; also recorded: localizes to all layers of the retina,"ganglion cells, bipolar cells, photoreceptors, and Müller cells",significantly reduced uptake,robust uptake,–,–,–
"CC[C@H](C)[C@H](NC(=O)[C@H](CO)NC(=O)[C@H](C)NC(=O)[C@H](CCCNC(=N)N)NC(=O)c1ccc2c(c1)C1(OC2=O)c2ccc(O)cc2Oc2cc(O)ccc21)C(=O)N[C@@H](C)C(=O)N[C@@H](CCCCN)C(=O)N[C@@H](C)C(=O)N[C@@H](CCCNC(=N)N)C(=O)N[C@@H](CC(=O)O)C(=O)N[C@H](C(=O)N[C@@H](CCCCN)C(=O)NCC(=O)N[C@H](C(=O)N1CCC[C@H]1C(=O)NCC(=O)N[C@@H](CO)C(=O)O)C(C)C)C(C)C [5′ 6-FAM-SC, reference compound] (6FAM-RASIAKARDVKGVPGS-OH)",accumulated primarily at the inner limiting membrane and was very weakly visible in the retina; also recorded: does not significantly penetrate the retina,–,marginal reduction in uptake,did not show any significant uptake,–,–,–
ASIKVAVSAGGDKPRR [Nuc1],–,–,–,–,not toxic,some toxicity,did not observe any obvious toxicity
